# Measurements: EP4722363A1, “RNAI AGENT FOR INHIBITING ANGPTL3 EXPRESSION AND USE THEREOF” (YUN HO BIO CO., LTD, priority 2023, dated 2024)
# Experiments:
# ANGPTL3 Protein [1] = test: PHH free uptake, inhibition of ANGPTL3, ELISA of supernatant; assay type: cell-based; conditions: primary human hepatocytes, 72 hours
# Description: PHH cells were thawed and adjusted to a density of 6×10^5 cells/mL. Then, 10 µL of the compound from the dilution plate was added to the cell culture plate, resulting in final compound concentrations of 100, 40, 12.5, 5, and 2 nM. The cells were seeded into a 96-well plate at a density of 54,000 cells per well (90 µL/well), with a final culture volume of 100 µL per well. The cells were cultured in a 5% CO2 incubator at 37°C for 72 hours.
# (§1) The supernatant from the PHH and PCH cultures from the previous steps was collected, transferred to a new 96-well V-bottom plate, and centrifuged. Human Angiopoietin-like 3 protein (hANGPTL3 protein; DANL30) ELISA test was performed according to the instructions of HANGPTL 3 protein Kit.
# (§2) Data Analysis: Four Parameter Logistic method. This method constructs a standard curve by plotting, with the y-axis as the average absorbance of the standards and the x-axis as the concentration, drawing a best-fit curve through the points on the graph. The OD value of the log concentration of the sample's HANGPTL3 protein is determined against the best-fit line of the log concentration by regression analysis. [formula]
# (§3) Sequences with good activity in Table 8 were evaluated for in vitro inhibitory activity against ANGPTL3 Protein in primary human hepatocytes (PHH) and primary cynomolgus monkey hepatocytes (PCH). Table 10. In Vitro Inhibitory Activity of MCPP-siRNAs against ANGPTL3 mRNA in PHH Cell Line
# ANGPTL3 Protein [2] = test: PCH free uptake, inhibition of ANGPTL3, ELISA of supernatant; assay type: cell-based; conditions: primary cynomolgus monkey hepatocytes, 72 hours
# Description: PCH cells were resuscitated using 10% FBS InvitroGRO™ HT Medium, and subsequently, the cell density was adjusted to 3×10^5 cells/mL using 10% FBS InvitroGRO™ CP Medium. Then, 10 µL of the compound from the dilution plate was added to the cell culture plate, resulting in final compound concentrations of 25, 5, and 1 nM. The cells were seeded into a 96-well plate at a density of 27,000 cells per well (90 µL/well), with a final culture volume of 100 µL per well. The cells were cultured in a 5% CO2 incubator at 37 °C for 72 hours.
# as §1, §2, §3
Substance,IC50 (ANGPTL3 Protein [1]) [nM],Average Inhibition in PCH % (ANGPTL3 Protein [2]; 1nM) [%],Average Inhibition in PCH % (ANGPTL3 Protein [2]; 5nM) [%],Average Inhibition in PCH % (ANGPTL3 Protein [2]; 25nM) [%]
"2002-018-001: GalNAc-conjugated modified ANGPTL3 siRNA, sense SEQ ID NO 39, antisense SEQ ID NO 13 (sense CAUAGUGAAGCAAUCUAAU; antisense AUUAGAUUGCUUCACUAUGGA; GalNAc conjugated, chemically modified, pattern not given here) [Duplex 2002-018-001]",1.9,–,–,–
"2002-018-002: GalNAc-conjugated modified ANGPTL3 siRNA, sense SEQ ID NO 34, antisense SEQ ID NO 13 (sense CAUAGUGAAGCAAUCUAAU; antisense AUUAGAUUGCUUCACUAUGGA; GalNAc conjugated, chemically modified, pattern not given here) [Duplex 2002-018-002]",0.96,–,–,–
"2002-033-001: GalNAc-conjugated modified ANGPTL3 siRNA, sense SEQ ID NO 38, antisense SEQ ID NO 12 (sense CAUAGUGAAGCAAUCUAAU; antisense AUUAGAUUGCUUCACUAUGGA; GalNAc conjugated, chemically modified, pattern not given here) [Duplex 2002-033-001]",1.08,53.11,67.45,68.80
"2002-033-002: GalNAc-conjugated modified ANGPTL3 siRNA, sense SEQ ID NO 33, antisense SEQ ID NO 12 (sense CAUAGUGAAGCAAUCUAAU; antisense AUUAGAUUGCUUCACUAUGGA; GalNAc conjugated, chemically modified, pattern not given here) [Duplex 2002-033-002]",0.84,–,–,–
"2002-034-001: GalNAc-conjugated modified ANGPTL3 siRNA, sense SEQ ID NO 38, antisense SEQ ID NO 13 (sense CAUAGUGAAGCAAUCUAAU; antisense AUUAGAUUGCUUCACUAUGGA; GalNAc conjugated, chemically modified, pattern not given here) [Duplex 2002-034-001]",1.38,50.50,63.43,66.66
"2002-034-002: GalNAc-conjugated modified ANGPTL3 siRNA, sense SEQ ID NO 33, antisense SEQ ID NO 13 (sense CAUAGUGAAGCAAUCUAAU; antisense AUUAGAUUGCUUCACUAUGGA; GalNAc conjugated, chemically modified, pattern not given here) [Duplex 2002-034-002]",1.3,45.42,60.18,63.01
"2002-050-L96: L96-conjugated comparator siRNA, sense SEQ ID NO 43, antisense SEQ ID NO 18 (sense CAUAGUGAAGCAAUCUAAU; antisense AUUAGAUUGCUUCACUAUGGA; L96 GalNAc conjugate, position not given here, modification pattern not given here) [Duplex 2002-050-L96, reference compound]",2.6,–,–,–
"2008-010-002: GalNAc-conjugated modified ANGPTL3 siRNA, sense SEQ ID NO 35, antisense SEQ ID NO 27 (sense GAGAAGAACUACAUAUAAA; antisense UUUAUAUGUAGUUCUUCUCAG; GalNAc conjugated, chemically modified, pattern not given here) [Duplex 2008-010-002]",0.98,–,–,–
"2008-011-001: GalNAc-conjugated modified ANGPTL3 siRNA, sense SEQ ID NO 40, antisense SEQ ID NO 28 (sense GAGAAGAACUACAUAUAAA; antisense UUUAUAUGUAGUUCUUCUCAG; GalNAc conjugated, chemically modified, pattern not given here) [Duplex 2008-011-001]",2.6,57.51,72.91,77.81
"2008-011-002: GalNAc-conjugated modified ANGPTL3 siRNA, sense SEQ ID NO 35, antisense SEQ ID NO 28 (sense GAGAAGAACUACAUAUAAA; antisense UUUAUAUGUAGUUCUUCUCAG; GalNAc conjugated, chemically modified, pattern not given here) [Duplex 2008-011-002]",0.75,54.65,71.25,76.57
"2008-018-001: GalNAc-conjugated modified ANGPTL3 siRNA, sense SEQ ID NO 41, antisense SEQ ID NO 27 (sense GAGAAGAACUACAUAUAAA; antisense UUUAUAUGUAGUUCUUCUCAG; GalNAc conjugated, chemically modified, pattern not given here) [Duplex 2008-018-001]",2.34,59.56,73.29,76.55
"2008-018-002: GalNAc-conjugated modified ANGPTL3 siRNA, sense SEQ ID NO 36, antisense SEQ ID NO 27 (sense GAGAAGAACUACAUAUAAA; antisense UUUAUAUGUAGUUCUUCUCAG; GalNAc conjugated, chemically modified, pattern not given here) [Duplex 2008-018-002]",0.96,–,–,–
"2008-019-001: GalNAc-conjugated modified ANGPTL3 siRNA, sense SEQ ID NO 41, antisense SEQ ID NO 28 (sense GAGAAGAACUACAUAUAAA; antisense UUUAUAUGUAGUUCUUCUCAG; GalNAc conjugated, chemically modified, pattern not given here) [Duplex 2008-019-001]",1.61,58.78,73.01,75.51
"2008-019-002: GalNAc-conjugated modified ANGPTL3 siRNA, sense SEQ ID NO 36, antisense SEQ ID NO 28 (sense GAGAAGAACUACAUAUAAA; antisense UUUAUAUGUAGUUCUUCUCAG; GalNAc conjugated, chemically modified, pattern not given here) [Duplex 2008-019-002]",1.11,52.37,70.28,73.74
"2008-035-001: GalNAc-conjugated modified ANGPTL3 siRNA, sense SEQ ID NO 42, antisense SEQ ID NO 28 (sense GAGAAGAACUACAUAUAAA; antisense UUUAUAUGUAGUUCUUCUCAG; GalNAc conjugated, chemically modified, pattern not given here) [Duplex 2008-035-001]",2.34,46.03,63.23,68.96
"2008-035-002: GalNAc-conjugated modified ANGPTL3 siRNA, sense SEQ ID NO 37, antisense SEQ ID NO 28 (sense GAGAAGAACUACAUAUAAA; antisense UUUAUAUGUAGUUCUUCUCAG; GalNAc conjugated, chemically modified, pattern not given here) [Duplex 2008-035-002]",2.23,–,–,–
